Laboratory results from patent publication US20230355542A1, “DRUG-ELUTING DEVICE WITH GENETIC AND CHEMICAL THERAPEUTICS FOR TREATING OR PREVENTING VASCULAR ACCESS DYSFUNCTIONS” (priority 2022, published 2023).

Test system: neointima formation in the venous arms of AV fistulae
Test: systemic E2 in AV fistula model with experimentally induced chronic kidney disease
Type: in vivo
Settings: systemic E2 100 ug/day, i.p; animals with experimentally induced CKD
Description: Systemic administration of estradiol, i.e., E2 (Molecular Weight: 272.38 Formula: […] Dissolves in absolute Ethanol) requires weekly therapeutic injections ([Study 1:10 weeks old+OVX (ovariectomy)+1 week+NX (nephrectomy)+4 weeks+AVF+4 weeks (with systemic E2 [100 ug/day, i.p])+4 weeks]) that are not applicable in real-life clinical settings. […] The nanoparticle membrane disclosed herein may locally deliver nanoparticles for the carotid artery ligation model and potentially for the AV Fistula injury site, replacing weekly injections, without the requirement for elevated systemic levels of E2. Nanoparticles may be successfully delivered and retained in layers of carotid artery tissue on a mouse model with significant enhancement.

Q: `C[C@]12CC[C@@H]3c4ccc(O)cc4CC[C@H]3[C@@H]1CC[C@@H]2O` [estrogen, estradiol] was tested. Which “effect on neointima formation” value did it give?
A: inhibits neointima formation
